For one assay, the system named is CD37 and FcγRIIIa (CD16). The assay can be described thus: Simultaneous binding of TRU-016 to CD37 and FcγRIIIa (CD16) on Daudi cells. Also noted: species or system human. To be noted: CS 0-800 μM in culture; response up to 400 μM, at which point the binding appears to level off. As to the method:
TRU-016 produced as described in Example 8 was tested in the following assay, which simultaneously evaluates the ability of the TRU-016 binding domain to bind to a CD37 expressing target cell and the ability of the Fc portion of the TRU-016 SMIP to bind a fusion protein of human CD16 and murine IgG Fc.
The target cell utilized is the Daudi (ATCC CRL-213) cell line. Daudi cells are a human B-lymphoblastoid cell line derived from a Burkitt's lymphoma and express high levels of CD37. The custom soluble CD16:MuIgGFc fusion protein is human CD16 (low affinity polymorphism) linked to a murine IgG Fc.
The appropriate number of Daudi cells (350,000/well times the number of wells) is aliquoted and centrifuged at 250×g for 5 minutes at 15° C. The supernatant is removed. One percent cold paraformaldehyde is prepared by diluting the 4% stock from USB (USB US19943) 1:4 with FACS Buffer. FACS Buffer is prepared by adding 2% FBS (Gibco) to Dulbecco's PBS (Invitrogen) (v/v) and sterile filtering with a 0.22 μm filter. FACS Buffer is stored and used at 4° C. […]
Each sample's bound fluorescence is measured on a BD FACSCalibur flow cytometry system and analyzed with Cell Quest Pro software (Becton Dickinson, ver 5.2). The GeoMean fluorescence intensity for each sample is plotted relative to the TRU-016 concentration. […]

In the next assay the test system is CD16. The assay can be described thus: Binding to soluble FcγR-MIg fusion on WIL2-S cells, flow cytometry (allele not stated). The procedure: The immunoglycoproteins produced according to Example 2 were assayed in vitro for binding to soluble Ig-fusion versions of Fcγ receptors, in which the extracellular domain of a receptor is fused to murine IgG2a Fc.
The soluble Fey receptor materials were generated by fusing the extracellular domain of Fcγ Receptors I (Genbank Acc. No. BC032634), IIa (Genbank Acc. No. NM_021642), IIb (Genbank Acc. No. BC031992), and III-V158 (high affinity allele) (Genbank Acc. No. X07934) and III-F158 (low affinity allele), respectively, to a murine IgG2a Fc with a Pro to Ser mutation at residue 238 (MIgG2aP238S). For both forms of Fcγ RIII (CD16), an HE4 leader was cloned onto CD16 amino acids 1-178 and then fused to MIgG2aP238S.
The assays were carried out as follows. […] The cells were then incubated with the desired FcγR-MIg fusion in the same diluent at a concentration of 1 μg/ml on ice for 45 minutes.
The complexes (WIL2-S cells/SMIP/FcγR-MIg) were then incubated with PE conjugated AffiniPure F(Ab')2 Goat Anti-Mouse IgG [Jackson Immunoresearch] (a mouse Fc-specific antibody with minimal cross reactivity with human Fc) at a 1:100 dilution. The cells were analyzed by one-color flow cytometry on a FACsCalibur using CellQuest software (Becton Dickinson).
If TRU-016 supernatants from Example 2 were used in this assay instead of purified TRU-016 protein, the SMIP concentration in the supernatant was quantified by direct staining of WIL2-S cells with diluted supernatant along with a TRU-016 standard. TRU-016 was detected by staining with FITC conjugated F(Ab')2 Goat Anti-Human (gamma) [Caltag H10101] at a 1:50 dilution.

In another assay the test system is Ramos cells. Briefly: Ramos tumor model in nude mice. It is filed as in vivo. The note with it: TRU-016 from CHO cells treated with 200 μM DMJ, 10 μM kifenunsine or 200 μM castanospermine; 200 μg i.v. As to the method:
Nude mice are administered 5×10^6 Ramos cells subcutaneously on day 0 and injected intravenously with 200 μg control human IgG or TRU-016 test protein produced by CHO cells treated with 200 μM DMJ, 10 μM kifenunsine or 200 μM castanospermine on days 0, 2, 4, 6, and 8. Mice typically develop tumors within 6 days and die shortly thereafter. Tumors are measured three times weekly with digital calipers and LabCat software, and tumor volume is calculated as […]. Body weight is also determined once a week.
Mice are sacrificed when the tumor reaches 1500 mm^3 in size (1200 mm^3 on Fridays). Mice are also sacrificed if ulceration of a tumor occurs, the tumor inhibits the mobility of animal, or if weight loss equals or exceeds 20%.

For `O[C@H]1[C@H](O)[C@@H](O)CN2CC[C@H](O)[C@H]12` [castanospermine], the “simultaneous binding of TRU-016 to CD37 and CD16 (GeoMean fluorescence, D-parameter)” value with CD37 and FcγRIIIa (CD16) was “dose-dependent binding response”. In addition, in the assay with CD16 (0, 10, 25, 50, 100 or 200 μM castanospermine in culture media), the “CD16 binding (mean fluorescence intensity) of Protein A-purified TRU-016” value is given as “dose-dependent increase”.
With “TRU-016: recombinant single chain protein (SMIP) that binds CD37; G28-1 binding domain, modified hinge, human IgG1 CH2 and CH3; SEQ ID NO: 2”, in the assay with Ramos cells, the mean survival time entry is “increase mean survival time” and the tumor volume entry is “reduce tumor volume”. Further, the “CD16 binding activity of sera containing TRU-016” value in the assay with CD16 (mouse sera at 48, 72, 96 and 192 hours after administration of carbohydrate-modified TRU-016) was “retained its increased CD16 binding activity”.

The values are drawn from US20100150948A1, “MATERIALS AND METHODS FOR IMPROVED IMMUNOGLYCOPROTEINS” (TRUBION PHARMACEUTICALS, INC., priority 2006, published 2010).
